The text below walks through data of PMC6934184, “Selective DNA-PKcs inhibition extends the therapeutic index of localized radiotherapy and chemotherapy” (The Journal of Clinical Investigation, 2019).

The target in this assay is T1, CDK2/cyclin A (Homo sapiens, UniProt P24941).
T1 construct: purchased Thermo Fisher Scientific (Life Technologies) SelectScreen
The assay is described as follows: SelectScreen Z'LYTE. In kind it is biochemical. In outline: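 Percent values come from Thermo SelectScreen profiling of NU5455, combining activity and binding assays. CSF1R was run in Z'LYTE format at Km app ATP, and CAMK1 in Adapta format with ATP listed at 10.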

What is called inhibition is the drop in the measured response relative to a control, in per cent. A low value points to a response near the control. The molecule `CN(C(=O)CN1CCOCC1)c1ccc2sc3c(-c4cccc5c(=O)cc(N6CC7CCC(C6)O7)oc45)cccc3c2c1` [NU5455] registered an inhibition at 1 µM of 2.7%.
